# Results taken from ChEMBL document CHEMBL5260850, “The exploration of aza-quinolines as hematopoietic prostaglandin D synthase (H-PGDS) inhibitors with low brain exposure” (Bioorg Med Chem, 2020).
# Calls of active or inactive are those of the source. The calls are words filed in the database; no cut-off is given here.
# Experiments:
# [1] = AUC in Wistar Han rat at 100 mg/kg/day, po QD for 7 days; type: ADME, organism-based; set-up: time 7 day, dose 100 mg/kg/day, route po; conditions: in vivo
# [2] = Clearance in dog at 0.5 mg/kg, iv; type: ADME, organism-based, Canis lupus familiaris; conditions: in vivo
# [3] = target: Aryl hydrocarbon receptor (Homo sapiens, UniProt P35869); assay: Inhibition of AhR (unknown origin) upto 10000 nM; conditions: 10 µM
# Sequence of Aryl hydrocarbon receptor (P35869 whole entry): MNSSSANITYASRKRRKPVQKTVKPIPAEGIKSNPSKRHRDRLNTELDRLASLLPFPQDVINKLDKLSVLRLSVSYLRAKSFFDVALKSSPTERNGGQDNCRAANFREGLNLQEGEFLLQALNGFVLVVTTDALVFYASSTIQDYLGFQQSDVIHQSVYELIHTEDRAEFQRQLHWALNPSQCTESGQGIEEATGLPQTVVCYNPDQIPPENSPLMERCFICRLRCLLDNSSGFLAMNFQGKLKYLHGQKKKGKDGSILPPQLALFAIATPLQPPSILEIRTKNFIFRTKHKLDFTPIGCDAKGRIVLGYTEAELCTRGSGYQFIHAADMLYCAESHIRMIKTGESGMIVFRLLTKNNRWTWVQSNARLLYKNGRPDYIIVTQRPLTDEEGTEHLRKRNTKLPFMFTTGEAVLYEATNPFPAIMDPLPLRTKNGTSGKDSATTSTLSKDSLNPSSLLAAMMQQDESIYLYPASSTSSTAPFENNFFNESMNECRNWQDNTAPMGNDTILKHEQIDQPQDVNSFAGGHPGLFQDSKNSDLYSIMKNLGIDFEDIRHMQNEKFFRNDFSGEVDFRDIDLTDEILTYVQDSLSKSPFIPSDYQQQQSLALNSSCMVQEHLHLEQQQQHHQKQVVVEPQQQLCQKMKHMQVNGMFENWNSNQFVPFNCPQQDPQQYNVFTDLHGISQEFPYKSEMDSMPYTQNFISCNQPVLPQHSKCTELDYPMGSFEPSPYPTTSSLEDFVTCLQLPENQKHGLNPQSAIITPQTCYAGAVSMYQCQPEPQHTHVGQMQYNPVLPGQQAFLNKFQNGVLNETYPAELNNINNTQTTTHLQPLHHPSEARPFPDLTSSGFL
# [4] = Toxicity in Wistar Han rat assessed as seizure-like activity at 10 to 100 mg/kg/day, po QD for 7 days; type: organism-based; conditions: in vivo, 168 h, dose 10-100 mg/kg/day, time 7 day
# [5] = target: Tyrosine-protein kinase Lck (Homo sapiens) (UniProt P06239); conditions: dose <= 10000.0 nM
# Sequence of Tyrosine-protein kinase Lck (Homo sapiens) (P06239 2-509 limits assumed): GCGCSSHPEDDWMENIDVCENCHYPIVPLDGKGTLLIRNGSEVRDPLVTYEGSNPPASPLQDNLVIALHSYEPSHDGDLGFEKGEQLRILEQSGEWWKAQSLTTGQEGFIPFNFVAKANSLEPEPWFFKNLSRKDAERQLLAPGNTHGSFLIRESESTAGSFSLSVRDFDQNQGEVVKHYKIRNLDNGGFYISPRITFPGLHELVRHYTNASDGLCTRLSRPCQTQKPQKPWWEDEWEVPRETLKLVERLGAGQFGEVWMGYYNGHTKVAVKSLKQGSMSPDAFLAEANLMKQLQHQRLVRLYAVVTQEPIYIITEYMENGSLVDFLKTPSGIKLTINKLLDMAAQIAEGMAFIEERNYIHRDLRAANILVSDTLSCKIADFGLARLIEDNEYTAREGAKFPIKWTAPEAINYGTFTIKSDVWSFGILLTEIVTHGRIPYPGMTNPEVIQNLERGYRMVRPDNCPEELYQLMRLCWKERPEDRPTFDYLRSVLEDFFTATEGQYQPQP
# Description: Inhibition of LCK (unknown origin) upto 10000 nM
# [6] = Oral bioavailability in mouse at 3 mg/kg; type: ADME, organism-based; conditions: in vivo
# [7] = AUC (0 to last) in eccentric contraction-induced muscle injury C57BL/6N mouse model administered orally for 10 mins prior to unilateral eccentric contraction and QD for 16 days thereafter; type: ADME; set-up: time 16 day, route po; conditions: in vivo, po
# [8] = Toxicity in rat assessed as tolerance at 300 mg/kg, po administered as single dose; type: organism-based; conditions: in vivo
# Mus musculus [9] = assay: Anti-inflammatory activity against C57BL/6N mouse assessed as inhibition of muscle function loss by measuring functional recovery of injured limb muscles administered orally for 10 mins prior to unilateral eccentric contraction and QD for 16 days thereafter; conditions: 384 h, route po, time 16 day
# [10] = Clearance in rat at 0.4 mg/kg, iv; type: ADME, organism-based; conditions: in vivo
# [11] = Toxicity in Wistar Han rat assessed as tolerance at 30 mg/kg/day, po administered QD for 7 days; type: organism-based; conditions: in vivo, 168 h, time 7 day
# [12] = Volume of distribution at steady state in rat at 0.4 mg/kg, iv; type: ADME, organism-based; conditions: in vivo, read-out: Vdss
# [13] = Toxicity in dog assessed as discoloration in small intestine and oesophagus at 75 mg/kg/day, po QD for 4 days by macroscopic analysis; type: organism-based, Canis lupus familiaris; conditions: in vivo, 96 h, time 4 day
# [14] = target: Mas-related G-protein coupled receptor member X2 (Homo sapiens) (UniProt Q96LB1); conditions: dose <= 10000.0 nM
# Description: Inhibition of MRGPRX2 receptor (unknown origin) upto 10000 nM
# [15] = Free Cmax in mdx mouse administered orally 10 mins prior to unilateral eccentric contraction and QD for 43 days thereafter; type: ADME; conditions: in vivo, po, 1032 h, time 43 day
# Mus musculus [16] = assay: Anti-inflammatory activity against C57BL6/N mouse assessed as reduction in LPS-induced PGD2 level in plasma administered orally with compound and 1 hr later treated with LPS and measured after 30 mins by LC-MS/MS analysis; type: functional; conditions: route po, time 1.5 hrs
# [17] = Volume of distribution at steady state in dog at 0.5 mg/kg, iv; type: ADME, organism-based, Canis lupus familiaris; conditions: in vivo, read-out: Vdss
# [18] = target: 5-hydroxytryptamine receptor 2B (Homo sapiens) (UniProt P41595); conditions: dose <= 10000.0 nM
# Sequence of 5-hydroxytryptamine receptor 2B (Homo sapiens) (P41595 whole entry): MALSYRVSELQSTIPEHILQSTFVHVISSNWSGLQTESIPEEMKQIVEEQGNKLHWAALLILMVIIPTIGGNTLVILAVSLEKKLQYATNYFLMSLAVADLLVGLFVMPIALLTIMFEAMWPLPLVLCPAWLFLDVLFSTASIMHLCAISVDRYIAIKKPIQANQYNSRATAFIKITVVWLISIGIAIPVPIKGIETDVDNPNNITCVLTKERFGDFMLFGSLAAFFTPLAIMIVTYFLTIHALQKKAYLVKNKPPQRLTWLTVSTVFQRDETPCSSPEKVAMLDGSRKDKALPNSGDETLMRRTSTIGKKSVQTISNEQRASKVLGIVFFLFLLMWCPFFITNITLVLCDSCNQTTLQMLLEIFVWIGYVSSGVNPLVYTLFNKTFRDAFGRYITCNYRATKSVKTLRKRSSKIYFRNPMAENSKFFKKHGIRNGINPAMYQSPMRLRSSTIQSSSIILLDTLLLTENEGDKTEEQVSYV
# Description: Inhibition of 5-HT2B receptor (unknown origin) upto 10000 nM
# [19] = Toxicity in dog assessed as hemorrhage of zona fasciculata in adrenal gland at 75 mg/kg/day, po QD for 4 days by microscopic analysis; type: organism-based, Canis lupus familiaris; conditions: in vivo, 96 h, time 4 day
# Mus musculus [20] = assay: Anti-inflammatory activity against C57BL6/N mouse assessed as reduction in LPS-induced PGD2 level in skeletal muscle administered orally with compound and 1 hr later treated with LPS and measured after 30 mins by LC-MS/MS analysis; type: functional; conditions: route po, time 1.5 hrs
# Cytochrome P450 3A4 = Cytochrome P450 3A4 (Homo sapiens, UniProt P08684); assay: Inhibition of CYP3A4 (unknown origin); type: ADME
# [21] = target: 5-hydroxytryptamine receptor 1B (Homo sapiens) (UniProt P28222); conditions: dose <= 10000.0 nM
# Sequence of 5-hydroxytryptamine receptor 1B (Homo sapiens) (P28222 whole entry): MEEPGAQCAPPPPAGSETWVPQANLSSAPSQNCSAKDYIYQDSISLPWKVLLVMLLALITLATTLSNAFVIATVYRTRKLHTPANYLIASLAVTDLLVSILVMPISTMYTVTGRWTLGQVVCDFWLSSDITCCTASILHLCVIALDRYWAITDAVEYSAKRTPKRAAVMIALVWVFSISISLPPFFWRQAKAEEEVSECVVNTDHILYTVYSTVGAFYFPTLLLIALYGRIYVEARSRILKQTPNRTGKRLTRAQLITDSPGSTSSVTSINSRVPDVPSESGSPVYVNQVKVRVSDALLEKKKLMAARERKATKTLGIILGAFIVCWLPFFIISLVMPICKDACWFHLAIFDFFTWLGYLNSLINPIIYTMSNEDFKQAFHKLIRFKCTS
# Description: Inhibition of 5-HT1B receptor (unknown origin) upto 10000 nM
# [22] = target: Solute carrier organic anion transporter family member 1B1 (Homo sapiens, UniProt Q9Y6L6); assay: Inhibition of OATP1B1 (unknown origin) upto 10000 nM; conditions: 10 µM
# [23] = Cmax in dog at 10 mg/kg/day, po QD for 4 days; type: ADME, organism-based, Canis lupus familiaris; set-up: dose 10 mg/kg/day, time 4 day, route po; conditions: in vivo
# [24] = Toxicity in dog assessed as tolerance upto 30 mg/kg/day, po QD for 4 days; type: organism-based, Canis lupus familiaris; conditions: in vivo, 96 h, time 4 day
# Bile salt export pump = Bile salt export pump (Homo sapiens, UniProt O95342); assay: Inhibition of BSEP (unknown origin) upto 10000 nM; conditions: 10 µM
# Sequence of Bile salt export pump (O95342 whole entry): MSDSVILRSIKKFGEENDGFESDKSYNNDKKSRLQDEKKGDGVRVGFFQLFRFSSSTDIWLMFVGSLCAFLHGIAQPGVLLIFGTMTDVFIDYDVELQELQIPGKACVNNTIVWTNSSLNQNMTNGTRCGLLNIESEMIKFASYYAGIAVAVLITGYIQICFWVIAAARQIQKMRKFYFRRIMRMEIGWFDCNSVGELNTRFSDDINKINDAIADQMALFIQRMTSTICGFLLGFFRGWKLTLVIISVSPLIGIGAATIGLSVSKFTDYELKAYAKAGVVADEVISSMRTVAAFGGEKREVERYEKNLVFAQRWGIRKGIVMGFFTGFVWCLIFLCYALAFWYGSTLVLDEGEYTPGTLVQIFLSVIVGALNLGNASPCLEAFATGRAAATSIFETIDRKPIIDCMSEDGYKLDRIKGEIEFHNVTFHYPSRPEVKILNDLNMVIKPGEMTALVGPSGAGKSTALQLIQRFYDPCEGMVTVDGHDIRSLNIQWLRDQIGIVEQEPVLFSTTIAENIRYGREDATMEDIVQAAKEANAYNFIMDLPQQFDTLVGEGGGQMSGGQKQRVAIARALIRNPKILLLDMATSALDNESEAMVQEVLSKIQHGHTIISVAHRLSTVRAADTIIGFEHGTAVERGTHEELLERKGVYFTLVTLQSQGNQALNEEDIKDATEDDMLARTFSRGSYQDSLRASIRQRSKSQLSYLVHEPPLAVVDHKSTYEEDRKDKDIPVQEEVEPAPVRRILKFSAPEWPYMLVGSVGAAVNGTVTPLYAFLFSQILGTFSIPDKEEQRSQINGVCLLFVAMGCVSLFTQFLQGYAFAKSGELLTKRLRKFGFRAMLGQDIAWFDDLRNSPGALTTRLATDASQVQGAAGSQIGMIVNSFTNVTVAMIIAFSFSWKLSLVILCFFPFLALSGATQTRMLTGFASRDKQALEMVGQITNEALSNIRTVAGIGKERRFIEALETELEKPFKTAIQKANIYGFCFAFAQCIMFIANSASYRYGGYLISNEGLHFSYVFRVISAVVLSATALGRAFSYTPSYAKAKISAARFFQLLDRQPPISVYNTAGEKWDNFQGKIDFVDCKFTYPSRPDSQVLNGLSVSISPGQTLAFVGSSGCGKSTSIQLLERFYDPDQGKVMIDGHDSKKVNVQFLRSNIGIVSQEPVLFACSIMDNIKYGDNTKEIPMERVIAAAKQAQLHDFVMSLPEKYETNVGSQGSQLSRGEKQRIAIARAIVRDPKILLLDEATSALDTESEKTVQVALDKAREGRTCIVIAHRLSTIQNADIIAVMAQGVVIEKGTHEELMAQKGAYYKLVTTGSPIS
# [25] = Toxicity in dog assessed as clinical pathological changes by measuring increase in red cell mass at 75 mg/kg/day, po QD for 4 days; type: organism-based, Canis lupus familiaris; conditions: in vivo, 96 h, time 4 day
# [26] = Selectivity ratio of EC50 for inhibition of H-PGDS in rat RBL cells assessed as reduction in A23187-induced PGD2 production to EC50 for anti-inflammatory activity against po dosed C57BL6/N mouse assessed as reduction in LPS-induced PGD2 level in plasma
# [27] = target: Aurora kinase B (Homo sapiens) (UniProt Q96GD4); conditions: dose <= 10000.0 nM
# Sequence of Aurora kinase B (Homo sapiens) (Q96GD4 whole entry): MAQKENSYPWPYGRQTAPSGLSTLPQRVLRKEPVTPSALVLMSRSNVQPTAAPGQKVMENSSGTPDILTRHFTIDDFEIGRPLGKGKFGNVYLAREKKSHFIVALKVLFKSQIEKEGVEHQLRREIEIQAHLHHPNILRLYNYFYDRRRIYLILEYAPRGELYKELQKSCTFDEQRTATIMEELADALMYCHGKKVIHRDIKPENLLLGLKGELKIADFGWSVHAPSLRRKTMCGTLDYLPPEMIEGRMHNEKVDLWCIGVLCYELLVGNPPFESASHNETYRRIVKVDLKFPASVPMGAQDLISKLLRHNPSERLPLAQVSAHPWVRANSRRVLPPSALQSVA
# Description: Inhibition of Aurora B kinase (unknown origin) upto 10000 nM
# [28] = target: Adenosine receptor A2a (Homo sapiens) (UniProt P29274); conditions: dose <= 10000.0 nM
# Sequence of Adenosine receptor A2a (Homo sapiens) (P29274 whole entry): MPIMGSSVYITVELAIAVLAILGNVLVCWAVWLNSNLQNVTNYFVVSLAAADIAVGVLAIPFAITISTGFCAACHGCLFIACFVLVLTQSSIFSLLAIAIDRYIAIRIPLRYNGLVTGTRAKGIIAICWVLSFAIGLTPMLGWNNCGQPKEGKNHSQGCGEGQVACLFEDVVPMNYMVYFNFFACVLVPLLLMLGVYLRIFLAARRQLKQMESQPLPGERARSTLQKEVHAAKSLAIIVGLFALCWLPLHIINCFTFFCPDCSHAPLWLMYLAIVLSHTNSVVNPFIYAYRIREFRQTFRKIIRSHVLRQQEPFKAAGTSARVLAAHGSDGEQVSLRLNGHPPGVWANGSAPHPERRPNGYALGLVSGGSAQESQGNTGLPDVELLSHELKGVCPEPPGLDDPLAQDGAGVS
# Description: Inhibition of adenosine A2A receptor (unknown origin) upto 10000 nM
# [29] = Toxicity in Wistar Han rat assessed as morphological changes in thymus at 30 mg/kg/day, po administered QD for 7 days by microscopic analysis; type: organism-based; conditions: in vivo, 168 h, time 7 day
# [30] = AUC (0 to last) in mdx mouse administered orally 10 mins prior to unilateral eccentric contraction and QD for 43 days thereafter; type: ADME; set-up: time 43 day, route po; conditions: in vivo, po
# [31] = target: Voltage-gated inwardly rectifying potassium channel KCNH2 (Homo sapiens, UniProt Q12809); assay: Inhibition of hERG
# [32] = Toxicity in C57BL/6N mouse assessed as seizures administered orally for 10 mins prior to unilateral eccentric contraction and QD for 16 days thereafter; conditions: in vivo, po, 384 h, time 16 day
# [33] = Cmax in Wistar Han rat at 100 mg/kg/day, po QD for 7 days; type: ADME, organism-based; set-up: dose 100 mg/kg/day, time 7 day, route po; conditions: in vivo
# [34] = target: Beta-2 adrenergic receptor (Homo sapiens) (UniProt P07550); conditions: dose <= 10000.0 nM
# Description: Inhibition of beta2 adrenergic receptor (unknown origin) upto 10000 nM
# [35] = Toxicity in dog assessed as clinical pathological changes by measuring increase in cardiac troponin 1 level at 75 mg/kg/day, po QD for 4 days; type: organism-based, Canis lupus familiaris; conditions: in vivo, 96 h, time 4 day
# [36] = Toxicity in dog assessed as degeneration of zona glomerulosa in adrenal gland at 75 mg/kg/day, po QD for 4 days by microscopic analysis; type: organism-based, Canis lupus familiaris; conditions: in vivo, 96 h, time 4 day
# [37] = Toxicity in dog assessed as organ morphological changes upto 30 mg/kg/day, po QD for 4 days by microscopic analysis; type: organism-based, Canis lupus familiaris; conditions: in vivo, 96 h, time 4 day
# [38] = Toxicity in Wistar Han rat assessed as morphological changes in adrenal gland at 30 mg/kg/day, po administered QD for 7 days by microscopic analysis; type: organism-based; conditions: in vivo, 168 h, time 7 day
# Mus musculus [39] = assay: Anti-inflammatory activity against C57BL6/N mouse assessed as EC50 required for reduction in LPS-induced PGD2 level in skeletal muscle administered orally with compound and 1 hr later treated with LPS and measured after 30 mins by LC-MS/MS analysis; type: functional, organism-based, C57BL/6N
# [40] = target: 5-hydroxytryptamine receptor 2A (Homo sapiens) (UniProt P28223); conditions: dose <= 10000.0 nM
# Sequence of 5-hydroxytryptamine receptor 2A (Homo sapiens) (P28223 whole entry): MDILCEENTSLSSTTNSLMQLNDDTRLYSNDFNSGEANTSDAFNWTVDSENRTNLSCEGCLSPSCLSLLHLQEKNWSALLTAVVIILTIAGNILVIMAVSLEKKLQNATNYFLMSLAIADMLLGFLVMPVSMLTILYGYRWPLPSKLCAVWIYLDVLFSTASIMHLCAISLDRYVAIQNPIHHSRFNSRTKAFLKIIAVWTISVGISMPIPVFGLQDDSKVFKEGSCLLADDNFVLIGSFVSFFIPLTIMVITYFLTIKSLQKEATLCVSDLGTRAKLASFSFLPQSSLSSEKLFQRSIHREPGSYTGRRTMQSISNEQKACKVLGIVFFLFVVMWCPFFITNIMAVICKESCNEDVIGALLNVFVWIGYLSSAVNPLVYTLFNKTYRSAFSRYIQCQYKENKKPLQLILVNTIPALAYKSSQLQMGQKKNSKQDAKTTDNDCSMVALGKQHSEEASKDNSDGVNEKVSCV
# Description: Inhibition of 5-HT2A receptor (unknown origin) upto 10000 nM
# [41] = Cmax in Wistar Han rat at 30 mg/kg/day, po QD for 7 days; type: ADME, organism-based; set-up: time 7 day, dose 30 mg/kg/day, route po; conditions: in vivo
# [42] = CNS toxicity in Wistar Han rat at 10 to 100 mg/kg/day, po QD for 7 days; type: organism-based; conditions: in vivo, 168 h, dose 10-100 mg/kg/day, time 7 day
compound,measurement,setting,value
CC(C)(O)[C@H]1CC[C@H](NC(=O)c2cnc3nc(C4CC4)ccc3c2)CC1,AUC at 168 h,[1],820000 ng·h/mL
same,clearance,[2],1.9 mL/min/kg
same,inhibition (INH),[3],Not Active
same,Activity,[4],Non-Toxic
same,inhibition,[5],inactive
same,bioavailability,[6],71%
same,AUC(0-t) at 384 h,[7],5300 ng·h/mL
same,Activity,[8],Non-Toxic
same,ED50,Mus musculus [9],3 mg/kg
same,clearance,[10],4.5 mL/min/kg
same,Activity,[11],Non-Toxic
same,Vd,[12],1.6 L/kg
same,Activity,[13],Toxic
same,inhibition,[14],inactive
same,fCmax,[15],49 ng/mL
same,ED50,Mus musculus [16],0.0031 mg/kg
same,Vd,[17],1 L/kg
same,inhibition,[18],inactive
same,Activity,[19],Toxic
same,ED50,Mus musculus [20],0.0138 mg/kg
same,IC50,Cytochrome P450 3A4,> 100 µM
same,inhibition,[21],inactive
same,inhibition (INH),[22],Not Active
same,Cmax,[23],13000 ng/mL
same,Activity,[24],Non-Toxic
same,inhibition (INH),Bile salt export pump,Not Active
same,Activity,[25],Toxic
same,Ratio EC50,[26],10
same,inhibition,[27],inactive
same,inhibition,[28],inactive
same,Activity,[29],Non-Toxic
same,AUC(0-t) at 1032 h,[30],1100 ng·h/mL
same,IC50,[31],> 80 µM
same,Activity,[32],Non-Toxic
same,Cmax,[33],57000 ng/mL
same,inhibition,[34],inactive
same,Activity,[35],Toxic
same,Activity,[36],Toxic
same,Activity,[37],Non-Toxic
same,Activity,[38],Non-Toxic
same,EC50,Mus musculus [39],1.4 ng/g
same,inhibition,[40],inactive
same,Cmax,[41],24000 ng/mL
same,Activity,[42],Non-Toxic
